Structures are written as SMILES.

Data on 5 compounds can be found in patent publication US8618077B2, “Compositions and methods for treating fragile X premutation RVGG repeats-mediated toxicity” (Emory University, priority 2011, dated 2013).

Test [1] deals with flies expressing fragile X premutation rCGG repeats (elav-GAL4/+; UAS-CGG90-EGFP/+). In words: Chemical screen / viability assay: rescue of lethality caused by neuronal expression of fragile X premutation rCGG90 repeats. The test is classed as in vivo, Drosophila. Conditions: for recovery of dFmr1 CGG90 mutant flies: 40 microM of compound in the food, 0% on food alone. An excerpt:
In particular, embodiments of the present disclosure include methods of screening compounds using a drosophila (fruit fly) based compound screen to identify drug candidates for the treatment of the fragile X-associated tremor/ataxia syndrome or other neurodegenerative disorders. […] A fly line of UAS-CGG90-EGFP transgene balanced with Cyo balancer carrying hs-hid transgene was generated. Upon heat shock, the expression of hid was activated, which led to cell death and lethality in the CGG90 dFmr1 premutation fly embryos.
The mutant embryos were placed into an appropriate container (e.g., a 96-well container) containing a food with or without a compound from a library of drugs candidates. 5 μM and 40 μM of individual compounds from a library of 2,000 FDA approved drugs and natural products (The Spectrum Collection™) were screened. Vials were then kept at 25° C. for 10 to 15 days to score for viability. The efficacy of the drug candidate was determined by scoring the number of pupae formation or the emergence of adult flies after a certain time frame. Embodiments of the present disclosure provide a screen for compounds that directly and indirectly regulate dFmr1 rCGG repeat mediated toxicity and rescue mutant flies from heat shock induced lethality. Additional details regarding the active compositions and disorders are described in the Examples below.
A Drosophila disease model of FXTAS and provided experimental evidence that fragile X premutation rCGG repeats alone are sufficient to cause neurodegeneration in a repeat-dosage manner. See Jin et al., Neuron, 2003, 39:739-747. […] Lethality occurs primarily during embryonic development before larval formation. Taking advantage of this lethality, a high-throughput strategy was designed to screen chemical libraries for small molecules relevant to FXTAS. the UAS-CGG90-EGFP transgene was balanced with a chromosome carrying a curly wing (Cyo) marker recombined with a heat shock-inducible apoptotic hid (hs-hid) transgene (w1118, UAS-CGG90-EGFP/TM2 Cyo:hs-hid). Next, the viability of adult progeny was tested using the Drosophila GAL4/UAS system. crosses of UAS-CGG90-EGFP/TM2 Cyo:hs-hid were performed with homozygous pan-neuronal elav-Gal4 driver. There was an absence of heterozygous non-Cyo adult progeny (elav-GAL4/+; UAS-CGG90-EGFP/+), which confirmed that rCGG90 repeat expression in neurons leads to lethality. The only living progenies would carry elav-GAL4/+; +/TM2 Cyo:hs-hid. Furthermore, upon heat shock, the progenies carrying elav-GAL4/+; +/TM2 Cyo:hs-hid also died, because the expression of hid leads to cell death and lethality at embryonic stages that are otherwise viable.
Since the rescue of the lethality was an easily scored phenotype, one is able to use this assay to conduct a chemical screen to identify the small molecules that can improve/restore the viability of the flies expressing fragile X premutation rCGG repeats. As depicted in schematic representation (FIG. 1A), crosses between elav-GAL4 and UAS-CGG90-EGFP/TM2 Cyo:hs-hid were raised as well as control flies into food supplemented with 40 μm of individual unique compounds from a library of 2000 US Food and Drug Administration (FDA)-approved drugs and natural products (The Spectrum Collection, MicroSource Discovery Systems, Inc.). […]

The subject of another test is dFmr1 CGG90 mutant flies. As to the kind of experiment: Locomotion assay (Drosophila Activity Monitor) in flies expressing rCGG90 repeats (UAS-CGG90-EGFP/nervana-GAL4). Conditions: for percentage of normal locomotion activity in dFmr1 CGG90 mutant flies: compound-treated flies, 50% without treatment; for effect on locomotion deficits caused by fragile X premutation rCGG repeats (in words): flies fed food containing the compound, mean locomotor activity over 7 days. The test is classed as in vivo. The protocol:
FIG. 2A illustrates the identification of small molecules that can ameliorate the locomotion deficits caused by fragile X premutation rCGG repeats. Nervana-GAL4 driver and UAS-CGG90-EGFP/Cyo were crossed to produce progeny embryos on food supplemented with or without selected compounds as indicated. Adult progeny of genotype UAS-CGG90-EGFP/nervana were selected and 32 female virgins 48 h old were subsequently monitored for locomotor activity continuously for several weeks. The locomotion of 32 flies that were fed with fly food containing the compound each time were simultaneously monitored.
To further validate these compounds, a secondary behavioral assay was developed. In this assay, UAS-CGG90-EGFP transgenic flies were crossed with nervana-GAL4, which could drive the expression of fragile X rCGG repeats in CNS, albeit weakly, allowing us to analyze adult flies for locomotion deficits. The expression of rCGG repeats leads to locomotion defects (FIG. 2A). […] The progeny flies (UAS-CGG90-EGFP/nervana-GAL4) were collected to monitor locomotion. To continuously monitor the locomotion for a given fly, a Drosophila Activity Monitor (DAM) system was established for this purpose. See Pfeiffenberger et al., Locomotor activity level monitoring using the Drosophila Activity Monitoring (DAM) System. Cold Spring Harb. Protoc. 2010.
For each individual compound, the locomotion of 32 flies were simultaneously monitored that were fed with fly food containing the compound each time. The data were collected and analyzed for locomotor activity (FIG. 2B). Each drug treatment was repeated at least three times.

Test [2] has as its system release of arachidonic acid. Particulars: cited from earlier work.

Regarding `COc1ccc(C(=O)/C=C/c2ccccc2)cc1` [4′-methoxy chalcone], in test [1], the “recovery of dFmr1 CGG90 mutant flies” value is 3%. In addition, in the test with dFmr1 CGG90 mutant flies, the “percentage of normal locomotion activity in dFmr1 CGG90 mutant flies” value (“percentage of normal locomotion activity” for short) is recorded as 75% and the “effect on locomotion deficits caused by fragile X premutation rCGG repeats (in words)” value (“effect on locomotion deficits caused” below) is reported as “significant suppression of the locomotion activity deficit”.

As to `C[C@@H]1C[C@H]2[C@@H]3CCC4=CC(=O)C=C[C@]4(C)[C@@]3(F)[C@@H](O)C[C@]2(C)[C@@]1(O)C(=O)CO` [dexamethasone], in test [1], the “recovery of dFmr1 CGG90 mutant flies” value is reported as 5%. For the same compound, in the test with dFmr1 CGG90 mutant flies, the “percentage of normal locomotion activity” value worked out at 90%.

Regarding `CC1(C)O[C@@H]2C[C@H]3[C@@H]4C[C@H](F)C5=CC(=O)C=C[C@]5(C)[C@@]4(F)[C@@H](O)C[C@]3(C)[C@]2(C(=O)CO)O1` [fluocilone acetonide], the “recovery of dFmr1 CGG90 mutant flies” value in test [1] stood at 7.5%. In addition, the “suppression of lethality caused by fragile X premutation rCGG repeats (in words)” value in test [1] (40 μm compound in food, heat shock at day 2, scored after 10-15 days) was “suppress both lethality and locomotion deficits”. In the test on dFmr1 CGG90 mutant flies, the “percentage of normal locomotion activity” value came out at 99%. In addition, the “effect on locomotion deficits caused” value in the test on dFmr1 CGG90 mutant flies was “significant suppression of the locomotion activity deficit”; in the test on dFmr1 CGG90 mutant flies (listed as Fluocinolone acetonide), “significantly ameliorate the locomotion defects”; in the test with dFmr1 CGG90 mutant flies (listed as fluocinolone acetonide), “suppress both lethality and locomotion deficits”.

With `CCN(CC)CCCC(C)Nc1c2ccc(Cl)cc2nc2ccc(OC)cc12` (stereo not shown) [quinacrine], the “release of arachidonic acid” value in test [2] is reported as “blocked”.

For `Cc1cccc(C)c1N=C1NCCCS1` [xylaxine], the “recovery of dFmr1 CGG90 mutant flies” value in test [1] is 5%. In addition, in the test on dFmr1 CGG90 mutant flies, the “percentage of normal locomotion activity” value is given as 80% and the “effect on locomotion deficits caused” value is given as “significant suppression of the locomotion activity deficit”. The “effect on locomotion deficits caused” value with dFmr1 CGG90 mutant flies (listed as xylazine) is “significantly ameliorate the locomotion defects”.
